Reference: ChEMBL document CHEMBL1201862, “PubChem BioAssay data set” (2004)
Calls of active or inactive are those of the source.

Columns and labels:
[1] = molecular target: Eukaryotic translation initiation factor 4E (Mus musculus, UniProt P63073); assay: eIF4E–eIF4G protein interaction inhibitors, dose response, biochemical, TR-FRET (AID 855); assay type: functional;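 note: potency for disrupting eIF4E binding to eIF4GI seen as loss of FRET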
[2] = molecular target: T1, Probable nicotinate-nucleotide adenylyltransferase (Staphylococcus aureus (strain N315), UniProt P65502); assay type: functional, Staphylococcus aureus subsp. aureus N315;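 for IC50 Mean: confirmatory dose-response retesting of NadD inhibitor hits first found in an ultra-high-throughput screen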
[3] = molecular target: T1, Probable nicotinate-nucleotide adenylyltransferase; assay type: functional, Staphylococcus aureus subsp. aureus N315; settings: read-out: IC50_Mean
Mu-type opioid receptor = Mu-type opioid receptor (Homo sapiens, UniProt P35372); assay type: functional, cell-based;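 note: U2OS cells with beta-arrestin recruitment to OPRM1 by beta-gal complementation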
[4] = molecular target: 5-hydroxytryptamine receptor 2A (Mus musculus, UniProt P35363); assay type: functional, cell-based;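 note: CHO-K1 cells with tagged receptor and beta-arrestin; agonist potency measured as compound-induced activation of the receptor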
[5] = molecular target: T2, Methionyl-tRNA synthetase, putative (Trypanosoma brucei brucei, UniProt Q38C91); assay type: functional, Trypanosoma brucei brucei strain 927/4 GUTat10.1
T2 sequence (Q38C91 whole entry): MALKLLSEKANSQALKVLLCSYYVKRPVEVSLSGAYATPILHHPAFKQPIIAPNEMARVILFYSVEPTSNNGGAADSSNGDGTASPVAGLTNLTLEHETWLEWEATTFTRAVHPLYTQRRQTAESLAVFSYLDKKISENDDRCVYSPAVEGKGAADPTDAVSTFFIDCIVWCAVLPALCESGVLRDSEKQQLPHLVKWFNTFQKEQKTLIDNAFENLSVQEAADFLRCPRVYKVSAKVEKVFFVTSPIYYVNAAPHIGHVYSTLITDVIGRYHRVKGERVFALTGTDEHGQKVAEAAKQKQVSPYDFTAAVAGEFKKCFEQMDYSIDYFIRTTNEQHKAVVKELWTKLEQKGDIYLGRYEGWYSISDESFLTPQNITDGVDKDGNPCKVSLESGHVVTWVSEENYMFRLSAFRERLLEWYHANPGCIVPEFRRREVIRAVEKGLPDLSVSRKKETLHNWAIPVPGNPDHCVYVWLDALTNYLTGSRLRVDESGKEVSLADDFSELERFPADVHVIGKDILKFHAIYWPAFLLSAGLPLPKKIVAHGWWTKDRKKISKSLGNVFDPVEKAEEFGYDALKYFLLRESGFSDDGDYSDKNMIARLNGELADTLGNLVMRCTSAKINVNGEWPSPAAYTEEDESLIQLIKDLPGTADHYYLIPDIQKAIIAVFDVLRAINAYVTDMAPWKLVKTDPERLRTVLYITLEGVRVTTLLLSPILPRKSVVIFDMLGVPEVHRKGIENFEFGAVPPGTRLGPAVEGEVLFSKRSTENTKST

[6] = Counterscreen for inhibitors of Trypanosoma brucei methionyl tRNA synthetase (MetRS): Luminescence-based cell-based high throughput dose response assay to identify compounds that are cytotoxic to Jurkat human T lymphocyte cells.; assay type: functional
Insulin-degrading enzyme = molecular target: T3, Insulin-degrading enzyme (Homo sapiens, UniProt P14735); assay: Dose Response: Fluorescence polarization-based cell-based high throughput dose response assay for inhibitors of insulin-degrading enzyme (IDE). [Related pubchem assays: 434962 (Primary screen (IDE inhibitors in singlicate)), 449730 (Counterscreen (Cytotoxicity in triplicate)), 435028 (Confirmation (IDE inhibitors in triplicate)), 434984 (Summary …; assay type: functional
T3 sequence (P14735 whole entry): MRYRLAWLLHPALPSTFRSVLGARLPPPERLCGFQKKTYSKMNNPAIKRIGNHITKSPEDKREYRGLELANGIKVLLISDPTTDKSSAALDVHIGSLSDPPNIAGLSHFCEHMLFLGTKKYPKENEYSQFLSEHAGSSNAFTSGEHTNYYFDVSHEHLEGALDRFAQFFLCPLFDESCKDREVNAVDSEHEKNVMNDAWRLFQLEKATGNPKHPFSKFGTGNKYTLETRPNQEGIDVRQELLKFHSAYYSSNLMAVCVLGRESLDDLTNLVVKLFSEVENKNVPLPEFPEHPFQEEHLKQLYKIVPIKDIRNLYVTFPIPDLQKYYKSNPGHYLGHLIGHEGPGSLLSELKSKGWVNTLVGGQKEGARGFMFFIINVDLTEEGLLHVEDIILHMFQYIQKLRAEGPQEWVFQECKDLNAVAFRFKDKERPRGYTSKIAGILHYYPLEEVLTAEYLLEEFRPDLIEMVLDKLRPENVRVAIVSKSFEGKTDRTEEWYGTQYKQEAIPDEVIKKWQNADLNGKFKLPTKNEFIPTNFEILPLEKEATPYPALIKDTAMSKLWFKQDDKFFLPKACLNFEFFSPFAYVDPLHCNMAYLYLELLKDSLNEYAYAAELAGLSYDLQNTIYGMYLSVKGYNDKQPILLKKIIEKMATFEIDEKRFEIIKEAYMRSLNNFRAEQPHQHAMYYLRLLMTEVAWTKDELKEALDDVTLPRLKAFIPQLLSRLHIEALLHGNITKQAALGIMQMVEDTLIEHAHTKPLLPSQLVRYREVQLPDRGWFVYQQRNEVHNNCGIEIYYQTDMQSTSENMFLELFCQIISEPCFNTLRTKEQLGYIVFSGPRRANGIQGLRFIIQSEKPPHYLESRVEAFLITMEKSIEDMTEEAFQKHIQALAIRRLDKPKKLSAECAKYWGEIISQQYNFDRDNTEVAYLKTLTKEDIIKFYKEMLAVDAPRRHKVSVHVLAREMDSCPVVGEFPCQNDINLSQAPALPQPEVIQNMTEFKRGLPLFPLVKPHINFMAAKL

[7] = molecular target: DNA repair and recombination protein RAD54-like (Homo sapiens, UniProt Q92698); assay: inhibitors of human RAD54 branch migration, confirmation, biochemical, fluorescence, cherry-picked samples, dose series (AID 651657); assay type: functional
[8] = Counterscreen for IDE inhibitors: Luminescence-based cell-based high throughput dose response assay to identify compounds that are cytotoxic to HEK cells. [Related pubchem assays: 434962 (Primary screen (IDE inhibitors in singlicate)), 449730 (Counterscreen (Cytotoxicity in triplicate)), 435028 (Confirmation (IDE inhibitors in triplicate)) …; assay type: functional; settings: HEK293
[9] = molecular target: T2, Methionyl-tRNA synthetase, putative; assay type: functional, Trypanosoma brucei brucei strain 927/4 GUTat10.1; remark: listed apart in the source
Beta Lactamase = Beta Lactamase (Pseudomonas aeruginosa, UniProt Q932Y6); assay: beta-lactamase reporter inhibitor potency, dose response, artefact control for NOD2-RIPK2 interaction inhibitor project, BLA reporter cells, FRET fluorescence (AID 651552); assay type: functional, cell-based
[10] = molecular target: T4, Voltage-gated N-type calcium channel alpha-1B subunit/Amyloid beta A4 precursor protein-binding family A member 1 (Homo sapiens, UniProt Q00975+Q02410); assay type: protein assay
Large T antigen = Large T antigen (Simian virus 40, UniProt P03070); assay type: functional, Betapolyomavirus macacae;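 note: Confirmatory-stage PubChem screen for compounds that inhibit SV40 T antigen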
[11] = molecular target: Glucose-6-phosphate 1-dehydrogenase (Homo sapiens, UniProt P11413); assay: human G6PD enzyme inhibitors, dose response, selectivity assay for P. falciparum G6PD inhibitor project, biochemical, fluorescence (AID 504792); assay type: functional
[12] = molecular target: T5, Rac GTPase-activating protein 1 (Homo sapiens, UniProt Q9H0H5); assay: MgcRacGAP GTPase-activating activity inhibitors, confirmation, biochemical, ADP Hunter fluorescence, primary and confirmatory (AID 624330); assay type: functional
T5 sequence (Q9H0H5 whole entry): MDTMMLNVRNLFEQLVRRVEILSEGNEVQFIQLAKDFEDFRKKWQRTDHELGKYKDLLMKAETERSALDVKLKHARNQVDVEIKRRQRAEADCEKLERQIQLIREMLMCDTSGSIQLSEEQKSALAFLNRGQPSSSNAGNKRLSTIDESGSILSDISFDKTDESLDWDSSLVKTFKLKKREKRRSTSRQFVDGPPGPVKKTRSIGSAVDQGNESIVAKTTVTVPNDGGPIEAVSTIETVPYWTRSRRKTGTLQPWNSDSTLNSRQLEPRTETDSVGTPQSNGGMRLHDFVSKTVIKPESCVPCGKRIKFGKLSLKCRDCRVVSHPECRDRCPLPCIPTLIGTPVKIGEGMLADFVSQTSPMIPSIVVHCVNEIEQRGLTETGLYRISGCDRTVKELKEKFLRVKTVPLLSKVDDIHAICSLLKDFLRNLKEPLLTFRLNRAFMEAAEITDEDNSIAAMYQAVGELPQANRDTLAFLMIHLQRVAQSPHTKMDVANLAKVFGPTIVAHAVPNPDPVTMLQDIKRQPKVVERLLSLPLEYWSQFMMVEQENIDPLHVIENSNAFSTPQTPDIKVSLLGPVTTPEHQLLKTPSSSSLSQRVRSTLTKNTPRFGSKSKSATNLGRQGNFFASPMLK

[13] = molecular target: Mitogen-activated protein kinase 10 (Homo sapiens, UniProt P53779); assay: Dose response biochemical screening assay for inhibitors of c-Jun N-Terminal Kinase 3 (JNK3). [Related pubchem assays: 746 ]
[14] = molecular target: T4, Voltage-gated N-type calcium channel alpha-1B subunit/Amyloid beta A4 precursor protein-binding family A member 1; assay type: protein assay; remark: listed apart in the source
[15] = Fluorescence-based cell-based high throughput dose response assay for inhibitors of the interaction of nucleotide-binding oligomerization domain containing 2 (NOD2) and the receptor-interacting serine-threonine kinase 2 (RIPK2).; assay type: functional; settings: Homo sapiens
Beta-lactamase [16] = molecular target: Beta-lactamase (Salmonella choleraesuis (strain SC-B67), UniProt Q5J463)
Beta-lactamase [17] = molecular target: Beta-lactamase (Pseudomonas aeruginosa, UniProt Q79MP6);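 note: biochemical dose-response test of metallo-beta-lactamase enzyme inhibition, read out by epi-absorbance; purified recombinant IMP-1 metallo-beta-lactamase with nitrocefin as substrate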
[18] = molecular target: T6, Short transient receptor potential channel 4 (Mus musculus, UniProt Q9QUQ5); assay: mouse TRPC4 channel activators, dose response, cell-based, HEK293 TRPC4/mu-opioid, Fluo-4 calcium (AID 434937); assay type: functional
T6 sequence (Q9QUQ5 whole entry): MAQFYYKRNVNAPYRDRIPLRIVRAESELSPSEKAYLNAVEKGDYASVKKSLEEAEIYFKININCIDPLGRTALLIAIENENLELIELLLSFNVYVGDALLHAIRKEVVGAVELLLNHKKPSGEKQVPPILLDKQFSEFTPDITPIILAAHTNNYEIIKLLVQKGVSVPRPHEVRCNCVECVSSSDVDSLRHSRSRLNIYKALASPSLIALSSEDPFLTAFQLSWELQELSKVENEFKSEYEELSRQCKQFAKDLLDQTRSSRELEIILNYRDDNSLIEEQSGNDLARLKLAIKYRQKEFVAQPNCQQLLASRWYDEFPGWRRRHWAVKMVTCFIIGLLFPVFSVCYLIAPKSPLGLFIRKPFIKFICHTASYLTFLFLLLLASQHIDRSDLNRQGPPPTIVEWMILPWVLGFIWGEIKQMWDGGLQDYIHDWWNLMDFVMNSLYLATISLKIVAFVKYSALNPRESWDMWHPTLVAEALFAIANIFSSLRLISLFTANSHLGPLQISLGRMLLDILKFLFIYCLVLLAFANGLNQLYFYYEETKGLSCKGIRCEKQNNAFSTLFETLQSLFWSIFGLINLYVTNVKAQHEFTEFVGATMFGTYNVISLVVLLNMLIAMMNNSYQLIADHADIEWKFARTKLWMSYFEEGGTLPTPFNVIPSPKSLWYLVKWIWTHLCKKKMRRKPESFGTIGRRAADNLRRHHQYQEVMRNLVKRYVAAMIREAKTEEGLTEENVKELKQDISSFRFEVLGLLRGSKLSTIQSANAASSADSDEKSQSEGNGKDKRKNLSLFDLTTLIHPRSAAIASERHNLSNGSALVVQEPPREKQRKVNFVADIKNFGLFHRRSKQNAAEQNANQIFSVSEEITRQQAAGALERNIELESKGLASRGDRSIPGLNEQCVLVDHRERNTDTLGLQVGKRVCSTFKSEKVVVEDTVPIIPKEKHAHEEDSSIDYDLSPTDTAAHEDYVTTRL

[19] = molecular target: T7, Sentrin-specific protease 1 (Homo sapiens, UniProt Q9P0U3); assay: potency of human SENP1 inhibitors, dose response, biochemical, kinetic FRET (AID 651697); assay type: functional; settings: read-out: IC50_Mean
[20] = molecular target: 26S proteasome non-ATPase regulatory subunit 14 (Homo sapiens, UniProt O00487); assay: inhibition of proteasome subunit RPN11 – biochemical, fluorescence polarization, uHTS hits, confirmation (AID 602368); assay type: functional
[21] = molecular target: 72 kDa type IV collagenase (Homo sapiens, UniProt P08253); assay: Dose Response validation of uHTS RPN11 inhibitor hits using a MMP-2 Fluorescence assay.; assay type: functional
[22] = molecular target: T7, Sentrin-specific protease 1; assay: Dose response confirmation of small molecule inhibitors of the catalytic domain of the SUMO protease, SENP1 in a FRET assay.; assay type: functional; settings: read-out: IC50_Mean
Prothrombin = Prothrombin (Bos taurus, UniProt P00735); assay: thrombin inhibition, dose response, biochemical, fluorescence polarization, uHTS hits (AID 602369); assay type: functional

T1 sequence (P65502 whole entry): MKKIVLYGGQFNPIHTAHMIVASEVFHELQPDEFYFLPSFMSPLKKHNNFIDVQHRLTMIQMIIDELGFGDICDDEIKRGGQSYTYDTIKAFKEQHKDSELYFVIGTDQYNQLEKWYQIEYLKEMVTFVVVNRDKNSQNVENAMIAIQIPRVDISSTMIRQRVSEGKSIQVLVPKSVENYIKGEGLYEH
T4 sequence (Q00975 whole entry): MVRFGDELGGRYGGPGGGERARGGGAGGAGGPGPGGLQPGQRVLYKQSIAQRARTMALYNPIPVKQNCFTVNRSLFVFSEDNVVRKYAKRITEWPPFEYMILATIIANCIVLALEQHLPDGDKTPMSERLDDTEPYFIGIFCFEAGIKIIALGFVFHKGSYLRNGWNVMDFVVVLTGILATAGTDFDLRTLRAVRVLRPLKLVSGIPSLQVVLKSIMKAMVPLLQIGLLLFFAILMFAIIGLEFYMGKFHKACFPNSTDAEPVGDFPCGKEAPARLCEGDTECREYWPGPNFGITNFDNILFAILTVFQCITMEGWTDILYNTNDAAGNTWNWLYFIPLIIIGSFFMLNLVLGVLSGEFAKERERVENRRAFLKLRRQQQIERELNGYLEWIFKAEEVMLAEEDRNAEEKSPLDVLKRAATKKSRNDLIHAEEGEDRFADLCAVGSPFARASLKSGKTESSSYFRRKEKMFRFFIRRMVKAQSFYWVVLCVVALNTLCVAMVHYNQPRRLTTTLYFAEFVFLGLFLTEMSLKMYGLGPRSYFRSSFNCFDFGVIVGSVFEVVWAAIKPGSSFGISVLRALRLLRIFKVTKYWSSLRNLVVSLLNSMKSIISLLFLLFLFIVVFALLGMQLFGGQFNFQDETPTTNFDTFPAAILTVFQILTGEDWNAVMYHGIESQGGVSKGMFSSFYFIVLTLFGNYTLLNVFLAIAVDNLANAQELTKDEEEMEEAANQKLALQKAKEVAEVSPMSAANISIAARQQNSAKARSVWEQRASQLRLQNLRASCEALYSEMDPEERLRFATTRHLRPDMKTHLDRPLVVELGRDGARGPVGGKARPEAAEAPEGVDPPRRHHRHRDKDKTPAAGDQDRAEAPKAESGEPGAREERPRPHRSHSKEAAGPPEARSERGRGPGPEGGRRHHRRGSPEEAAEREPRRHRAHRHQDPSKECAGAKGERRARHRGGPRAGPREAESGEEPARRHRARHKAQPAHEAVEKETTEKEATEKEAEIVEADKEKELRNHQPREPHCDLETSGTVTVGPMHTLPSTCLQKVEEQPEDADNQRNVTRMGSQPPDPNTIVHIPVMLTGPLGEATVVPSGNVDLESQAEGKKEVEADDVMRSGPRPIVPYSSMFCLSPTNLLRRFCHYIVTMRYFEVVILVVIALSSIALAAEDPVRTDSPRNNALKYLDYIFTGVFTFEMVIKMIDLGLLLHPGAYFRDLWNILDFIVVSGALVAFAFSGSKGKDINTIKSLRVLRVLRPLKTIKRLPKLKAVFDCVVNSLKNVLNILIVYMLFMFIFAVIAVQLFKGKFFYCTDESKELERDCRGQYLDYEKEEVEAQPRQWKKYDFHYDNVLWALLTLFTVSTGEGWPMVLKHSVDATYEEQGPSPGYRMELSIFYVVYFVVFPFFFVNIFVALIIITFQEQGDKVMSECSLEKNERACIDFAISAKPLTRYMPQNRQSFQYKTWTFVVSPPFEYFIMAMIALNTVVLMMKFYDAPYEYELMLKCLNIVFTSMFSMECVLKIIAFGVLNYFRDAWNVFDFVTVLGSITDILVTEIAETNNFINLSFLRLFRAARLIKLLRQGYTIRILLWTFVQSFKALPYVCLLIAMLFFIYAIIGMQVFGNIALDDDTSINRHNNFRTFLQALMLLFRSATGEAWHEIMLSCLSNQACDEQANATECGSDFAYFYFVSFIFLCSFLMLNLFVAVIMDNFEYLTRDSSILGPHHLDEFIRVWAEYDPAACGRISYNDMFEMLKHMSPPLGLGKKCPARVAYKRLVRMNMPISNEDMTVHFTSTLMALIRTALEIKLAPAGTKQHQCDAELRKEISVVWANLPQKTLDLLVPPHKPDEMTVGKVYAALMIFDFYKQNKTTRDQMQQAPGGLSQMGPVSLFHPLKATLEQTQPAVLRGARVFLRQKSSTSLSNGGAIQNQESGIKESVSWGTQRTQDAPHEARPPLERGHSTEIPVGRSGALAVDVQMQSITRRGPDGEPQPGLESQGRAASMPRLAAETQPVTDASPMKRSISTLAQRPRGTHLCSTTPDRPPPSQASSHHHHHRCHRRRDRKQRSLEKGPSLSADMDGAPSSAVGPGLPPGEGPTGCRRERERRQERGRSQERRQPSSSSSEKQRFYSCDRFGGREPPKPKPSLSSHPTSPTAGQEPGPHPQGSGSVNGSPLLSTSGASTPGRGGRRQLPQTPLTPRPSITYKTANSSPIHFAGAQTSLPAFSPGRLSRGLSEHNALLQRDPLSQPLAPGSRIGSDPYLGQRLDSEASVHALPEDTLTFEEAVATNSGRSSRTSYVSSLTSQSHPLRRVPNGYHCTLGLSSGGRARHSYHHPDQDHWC
T4 sequence (Q02410 whole entry): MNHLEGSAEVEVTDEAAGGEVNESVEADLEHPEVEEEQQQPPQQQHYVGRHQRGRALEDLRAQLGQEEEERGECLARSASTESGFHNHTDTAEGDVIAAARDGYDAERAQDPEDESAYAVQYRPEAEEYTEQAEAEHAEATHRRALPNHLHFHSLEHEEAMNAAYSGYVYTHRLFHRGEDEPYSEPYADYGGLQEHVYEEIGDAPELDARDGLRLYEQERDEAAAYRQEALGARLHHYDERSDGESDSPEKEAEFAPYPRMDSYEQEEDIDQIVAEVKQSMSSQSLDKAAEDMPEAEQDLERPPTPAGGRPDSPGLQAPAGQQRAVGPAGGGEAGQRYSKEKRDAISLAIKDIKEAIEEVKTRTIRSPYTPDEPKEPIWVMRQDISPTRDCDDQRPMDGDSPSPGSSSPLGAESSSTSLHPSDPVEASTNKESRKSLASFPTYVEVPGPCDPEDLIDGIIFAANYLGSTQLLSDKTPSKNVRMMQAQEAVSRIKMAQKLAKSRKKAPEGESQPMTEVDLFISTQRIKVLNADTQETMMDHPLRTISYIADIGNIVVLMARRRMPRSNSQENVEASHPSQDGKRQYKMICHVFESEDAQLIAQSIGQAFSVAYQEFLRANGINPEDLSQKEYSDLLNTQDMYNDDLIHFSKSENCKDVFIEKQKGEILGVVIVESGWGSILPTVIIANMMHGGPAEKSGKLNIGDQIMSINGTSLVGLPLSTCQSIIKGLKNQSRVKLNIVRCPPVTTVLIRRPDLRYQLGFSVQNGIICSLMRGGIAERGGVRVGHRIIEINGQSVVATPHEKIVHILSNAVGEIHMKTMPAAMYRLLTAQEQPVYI
T7 sequence (Q9P0U3 whole entry): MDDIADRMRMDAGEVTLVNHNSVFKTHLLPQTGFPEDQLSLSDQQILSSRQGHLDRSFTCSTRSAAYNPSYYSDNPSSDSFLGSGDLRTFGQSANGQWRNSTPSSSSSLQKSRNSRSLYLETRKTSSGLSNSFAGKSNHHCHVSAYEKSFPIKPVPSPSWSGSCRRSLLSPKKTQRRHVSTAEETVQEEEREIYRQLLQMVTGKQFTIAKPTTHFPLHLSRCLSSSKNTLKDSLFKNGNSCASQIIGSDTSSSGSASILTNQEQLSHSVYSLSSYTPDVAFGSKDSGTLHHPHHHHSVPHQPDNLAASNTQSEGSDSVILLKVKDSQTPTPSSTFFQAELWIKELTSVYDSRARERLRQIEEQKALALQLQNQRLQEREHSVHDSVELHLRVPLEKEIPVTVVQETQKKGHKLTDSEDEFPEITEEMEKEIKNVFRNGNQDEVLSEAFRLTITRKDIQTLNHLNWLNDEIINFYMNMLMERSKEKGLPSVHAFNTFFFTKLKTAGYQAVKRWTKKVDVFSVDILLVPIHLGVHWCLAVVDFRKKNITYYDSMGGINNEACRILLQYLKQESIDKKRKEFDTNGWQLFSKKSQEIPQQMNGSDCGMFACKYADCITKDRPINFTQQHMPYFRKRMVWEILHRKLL
Sequence of Beta Lactamase (Q932Y6 whole entry): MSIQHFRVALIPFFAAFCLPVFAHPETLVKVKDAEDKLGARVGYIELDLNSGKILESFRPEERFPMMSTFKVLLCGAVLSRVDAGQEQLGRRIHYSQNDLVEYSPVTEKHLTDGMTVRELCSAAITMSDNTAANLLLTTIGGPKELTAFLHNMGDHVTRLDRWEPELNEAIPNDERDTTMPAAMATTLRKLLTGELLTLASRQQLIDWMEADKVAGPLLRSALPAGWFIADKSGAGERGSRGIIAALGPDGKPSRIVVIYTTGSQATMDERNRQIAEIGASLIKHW
Sequence of 72 kDa type IV collagenase (P08253 whole entry, the tested form may be a part): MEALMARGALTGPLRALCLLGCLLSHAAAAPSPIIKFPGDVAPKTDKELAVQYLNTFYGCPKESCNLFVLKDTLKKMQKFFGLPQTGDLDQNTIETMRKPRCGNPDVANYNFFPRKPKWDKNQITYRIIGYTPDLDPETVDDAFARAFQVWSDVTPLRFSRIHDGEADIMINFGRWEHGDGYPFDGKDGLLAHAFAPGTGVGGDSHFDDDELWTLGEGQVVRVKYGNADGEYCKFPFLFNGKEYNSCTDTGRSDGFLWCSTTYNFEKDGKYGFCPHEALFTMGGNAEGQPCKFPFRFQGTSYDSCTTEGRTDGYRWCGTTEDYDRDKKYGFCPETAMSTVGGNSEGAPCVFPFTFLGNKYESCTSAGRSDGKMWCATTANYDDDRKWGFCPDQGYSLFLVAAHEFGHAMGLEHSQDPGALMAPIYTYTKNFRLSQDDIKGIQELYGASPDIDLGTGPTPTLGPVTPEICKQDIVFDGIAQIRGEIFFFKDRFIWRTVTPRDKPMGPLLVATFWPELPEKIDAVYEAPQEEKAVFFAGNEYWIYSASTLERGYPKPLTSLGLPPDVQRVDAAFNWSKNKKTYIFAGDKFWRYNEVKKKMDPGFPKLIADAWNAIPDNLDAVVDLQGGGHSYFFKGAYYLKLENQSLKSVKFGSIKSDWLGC

Cc1ccc(-c2cc(-c3ccc(Cl)cc3)c(C#N)c(N)n2)o1
IC50 [1]: > 64 µM (inactive)
IC50 [2]: 0.461 µM (active)
IC50 [3]: 0.808 µM (active)

CN(C)S(=O)(=O)c1cc(NC(=O)CN2CCN(c3ccccc3)CC2)ccc1Cl
EC50 (Mu-type opioid receptor): 92.4 µM (inactive)
EC50 [4]: 30.5 µM (inactive)

Clc1ccc2[nH]c3c(NCCCN4CCOCC4)ncnc3c2c1
IC50 [5]: 11.3 µM (inactive)
IC50 [6]: 59.8 µM (inactive)
IC50 (Insulin-degrading enzyme): 10.9 µM (not active)
AC50 [7]: 33.7 µM (active)
IC50 [8]: 14.3 µM (not active)
IC50 [9]: 9.1 µM (active)

CC1=C(C)C[S+]([O-])N(S(=O)(=O)c2ccc(Cl)cc2)C1 (configuration not stated)
IC50 (Beta Lactamase): 25.8 µM (inactive)
IC50 [10]: > 50 µM (inactive)
IC50 (Large T antigen): 18.1 µM (active)
IC50 [11]: > 80 µM (inactive)
IC50 [12]: 71.9 µM (active)
IC50 [13]: > 93.1 µM (not active)
IC50 [14]: 30.9 µM (active)
IC50 [15]: 5.57 µM (active)

O=C1/C(=C\c2cc(Cl)c(O)c(Cl)c2)SC(=S)N1Cc1ccccc1
IC50 (Beta-lactamase [16]): 3.15 µM (active)
IC50 (Beta-lactamase [17]): > 59.6 µM (inactive)
EC50 [18]: 5.31 µM (active)

COc1ccc2c(C)cc(SCC(=O)N3CCOCC3)nc2c1
IC50 [19]: 13.3 µM (active)
IC50 [20]: 9.61 µM (active)
IC50 [21]: > 100 µM (inactive)
IC50 [22]: 7.01 µM (active)
IC50 (Prothrombin): 21.6 µM (active)
